# From PubChem BioAssay (NCI)
#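 GI50 = concentration required for 50% inhibition of growth. Definition used: TGI = concentration required for complete inhibition of growth.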
# Key:
# Assay in all cases: growth of human tumour cells (NCI), 384-well format
# 786-0 renal = system: 786-0 renal
# A498 renal = system: A498 renal
# A549 NSCLC = system: A549 NSCLC
# ACHN renal = system: ACHN renal
# BT-549 breast = system: BT-549 breast
# CAKI-1 renal = system: CAKI-1 renal
# CCRF-CEM leukemia = system: CCRF-CEM leukemia
# COLO 205 colon = system: COLO 205 colon
# DU-145 prostate = system: DU-145 prostate
# EKVX NSCLC = system: EKVX NSCLC
# HCC-2998 colon = system: HCC-2998 colon
# HCT-116 colon = system: HCT-116 colon
# HCT-15 colon = system: HCT-15 colon
# HL-60(TB) leukemia = system: HL-60(TB) leukemia
# HOP-62 NSCLC = system: HOP-62 NSCLC
# HOP-92 NSCLC = system: HOP-92 NSCLC
# HS 578T breast = system: HS 578T breast
# HT29 colon = system: HT29 colon
# IGROV1 ovarian = system: IGROV1 ovarian
# K-562 leukemia = system: K-562 leukemia
# KM12 colon = system: KM12 colon
# LOX IMVI melanoma = system: LOX IMVI melanoma
# M14 melanoma = system: M14 melanoma
# MALME-3M melanoma = system: MALME-3M melanoma
# MCF7 breast = system: MCF7 breast
# MDA-MB-231 breast = system: MDA-MB-231 breast
# MDA-MB-435 melanoma = system: MDA-MB-435 melanoma
# MDA-MB-468 breast = system: MDA-MB-468 breast
# MOLT-4 leukemia = system: MOLT-4 leukemia
# NCI-H226 lung = system: NCI-H226 lung
# NCI-H23 lung = system: NCI-H23 lung
# NCI-H322M lung = system: NCI-H322M lung
# NCI-H460 NSCLC = system: NCI-H460 NSCLC
# NCI-H522 lung = system: NCI-H522 lung
# NCI/ADR-RES ovarian = system: NCI/ADR-RES ovarian
# OVCAR-3 ovarian = system: OVCAR-3 ovarian
# OVCAR-4 ovarian = system: OVCAR-4 ovarian
# OVCAR-5 ovarian = system: OVCAR-5 ovarian
# OVCAR-8 ovarian = system: OVCAR-8 ovarian
# PC-3 prostate = system: PC-3 prostate
# RPMI-8226 leukemia = system: RPMI-8226 leukemia
# RXF 393 renal = system: RXF 393 renal
# SF-268 CNS = system: SF-268 CNS
# SF-295 CNS = system: SF-295 CNS
# SF-539 CNS = system: SF-539 CNS
# SK-MEL-28 melanoma = system: SK-MEL-28 melanoma
# SK-MEL-5 melanoma = system: SK-MEL-5 melanoma
# SK-OV-3 ovarian = system: SK-OV-3 ovarian
# SN12C renal = system: SN12C renal
# SNB-19 CNS = system: SNB-19 CNS
# SNB-75 CNS = system: SNB-75 CNS
# SW-620 colon = system: SW-620 colon
# T-47D breast = system: T-47D breast
# TK-10 renal = system: TK-10 renal
# U251 glioblastoma = system: U251 glioblastoma
# UACC-257 melanoma = system: UACC-257 melanoma
# UACC-62 melanoma = system: UACC-62 melanoma
# UO-31 renal = system: UO-31 renal
smiles,measurement,setting,value
COc1cc2c(NC3CCN(C(C)C)CC3)nc(C3CCCCC3)nc2cc1OCCCN1CCCC1,GI50,786-0 renal,1350 nM
same,TGI,786-0 renal,2650 nM
same,GI50,A498 renal,683 nM
same,TGI,A498 renal,1960 nM
same,GI50,A549 NSCLC,1560 nM
same,TGI,A549 NSCLC,3000 nM
same,GI50,ACHN renal,1790 nM
same,TGI,ACHN renal,3800 nM
same,GI50,BT-549 breast,378 nM
same,TGI,BT-549 breast,1340 nM
same,GI50,CAKI-1 renal,1390 nM
same,TGI,CAKI-1 renal,2720 nM
same,GI50,CCRF-CEM leukemia,205 nM
same,TGI,CCRF-CEM leukemia,397 nM
same,GI50,COLO 205 colon,1330 nM
same,TGI,COLO 205 colon,2640 nM
same,GI50,DU-145 prostate,1230 nM
same,TGI,DU-145 prostate,4290 nM
same,GI50,EKVX NSCLC,807 nM
same,TGI,EKVX NSCLC,2860 nM
same,GI50,HCC-2998 colon,1560 nM
same,TGI,HCC-2998 colon,3010 nM
same,GI50,HCT-116 colon,550 nM
same,TGI,HCT-116 colon,1750 nM
same,GI50,HCT-15 colon,1240 nM
same,TGI,HCT-15 colon,5200 nM
same,GI50,HL-60(TB) leukemia,429 nM
same,TGI,HL-60(TB) leukemia,1070 nM
same,GI50,HOP-62 NSCLC,1710 nM
same,TGI,HOP-62 NSCLC,3140 nM
same,GI50,HOP-92 NSCLC,1200 nM
same,TGI,HOP-92 NSCLC,2460 nM
same,GI50,HS 578T breast,1750 nM
same,TGI,HS 578T breast,3140 nM
same,GI50,HT29 colon,285 nM
same,TGI,HT29 colon,1110 nM
same,GI50,IGROV1 ovarian,1530 nM
same,TGI,IGROV1 ovarian,11300 nM
same,GI50,K-562 leukemia,484 nM
same,TGI,K-562 leukemia,1740 nM
same,GI50,KM12 colon,991 nM
same,TGI,KM12 colon,2520 nM
same,GI50,LOX IMVI melanoma,1450 nM
same,TGI,LOX IMVI melanoma,2790 nM
same,GI50,M14 melanoma,1740 nM
same,TGI,M14 melanoma,3140 nM
same,GI50,MALME-3M melanoma,1370 nM
same,TGI,MALME-3M melanoma,2680 nM
same,GI50,MCF7 breast,1110 nM
same,TGI,MCF7 breast,2400 nM
same,GI50,MDA-MB-231 breast,1610 nM
same,TGI,MDA-MB-231 breast,3340 nM
same,GI50,MDA-MB-435 melanoma,1160 nM
same,TGI,MDA-MB-435 melanoma,2400 nM
same,GI50,MDA-MB-468 breast,262 nM
same,TGI,MDA-MB-468 breast,587 nM
same,GI50,MOLT-4 leukemia,552 nM
same,TGI,MOLT-4 leukemia,1910 nM
same,GI50,NCI-H226 lung,1790 nM
same,TGI,NCI-H226 lung,3940 nM
same,GI50,NCI-H23 lung,1950 nM
same,TGI,NCI-H23 lung,4650 nM
same,GI50,NCI-H322M lung,1490 nM
same,TGI,NCI-H322M lung,3010 nM
same,GI50,NCI-H460 NSCLC,365 nM
same,TGI,NCI-H460 NSCLC,1040 nM
same,GI50,NCI-H522 lung,634 nM
same,TGI,NCI-H522 lung,1830 nM
same,GI50,NCI/ADR-RES ovarian,69000 nM
same,TGI,NCI/ADR-RES ovarian,> 100000 nM
same,GI50,OVCAR-3 ovarian,835 nM
same,TGI,OVCAR-3 ovarian,2080 nM
same,GI50,OVCAR-4 ovarian,1120 nM
same,TGI,OVCAR-4 ovarian,2440 nM
same,GI50,OVCAR-5 ovarian,1970 nM
same,TGI,OVCAR-5 ovarian,4260 nM
same,GI50,OVCAR-8 ovarian,1540 nM
same,TGI,OVCAR-8 ovarian,2910 nM
same,GI50,PC-3 prostate,1430 nM
same,TGI,PC-3 prostate,4160 nM
same,GI50,RPMI-8226 leukemia,368 nM
same,TGI,RPMI-8226 leukemia,1130 nM
same,GI50,RXF 393 renal,347 nM
same,TGI,RXF 393 renal,1400 nM
same,GI50,SF-268 CNS,307 nM
same,TGI,SF-268 CNS,1520 nM
same,GI50,SF-295 CNS,1800 nM
same,TGI,SF-295 CNS,3210 nM
same,GI50,SF-539 CNS,292 nM
same,TGI,SF-539 CNS,937 nM
same,GI50,SK-MEL-28 melanoma,1260 nM
same,TGI,SK-MEL-28 melanoma,2530 nM
same,GI50,SK-MEL-5 melanoma,873 nM
same,TGI,SK-MEL-5 melanoma,2120 nM
same,GI50,SK-OV-3 ovarian,1410 nM
same,TGI,SK-OV-3 ovarian,2970 nM
same,GI50,SN12C renal,1120 nM
same,TGI,SN12C renal,2950 nM
same,GI50,SNB-19 CNS,1230 nM
same,TGI,SNB-19 CNS,3100 nM
same,GI50,SNB-75 CNS,1400 nM
same,TGI,SNB-75 CNS,2710 nM
same,GI50,SW-620 colon,1550 nM
same,TGI,SW-620 colon,2910 nM
same,GI50,T-47D breast,573 nM
same,TGI,T-47D breast,1830 nM
same,GI50,TK-10 renal,1280 nM
same,TGI,TK-10 renal,2560 nM
same,GI50,U251 glioblastoma,1030 nM
same,TGI,U251 glioblastoma,2200 nM
same,GI50,UACC-257 melanoma,1250 nM
same,TGI,UACC-257 melanoma,2510 nM
same,GI50,UACC-62 melanoma,1750 nM
same,TGI,UACC-62 melanoma,3150 nM
same,GI50,UO-31 renal,1320 nM
same,TGI,UO-31 renal,2720 nM
